Reference: publication PMC4503722, “Novel Phenotypic Outcomes Identified for a Public Collection of Approved Drugs from a Publicly Accessible Panel of Assays” (PLoS ONE, 2015)
Where two headings read alike, the source gives them in different places.

Tests used:
DLD-1 = experiment: cells; type: cell-based; conditions: for IC50: read-out: Basal_Viability ATP DLD-1 summarized IC50
HeLa cells = experiment: cells; type: cell-based; conditions: for Hela CellCycMod PI 2N IC50/EC50: assay number 14; for Hela CellCycMod PI S Phase IC50/EC50: assay number 15; for Hela CellCycMod PI 4N IC50/EC50: assay number 16; for Hela CellCycMod PI MI IC50/EC50: assay number 17; for Hela CellCycMod PI Cell Number IC50/EC50: assay number 18
HT-29 = experiment: cells; type: cell-based; conditions: for IC50: read-out: Basal_Viability ATP HT-29 summarized IC50
Colo320 = experiment: cells; type: cell-based; conditions: for IC50: read-out: Basal_Viability ATP Colo 320 summarized IC50
RKO = experiment: cells; type: cell-based; conditions: for IC50: read-out: Basal_Viability ATP RKO summarized IC50
HCT116 = experiment: cells; type: cell-based; conditions: for IC50: read-out: Basal_Viability ATP HCT116 summarized IC50
SW480 = experiment: cells; type: cell-based; conditions: for IC50: read-out: Basal_Viability ATP SW480 summarized IC50
SNU-C1 = experiment: cells; type: cell-based; conditions: for IC50: read-out: Basal_Viability ATP SNU-C1 summarized IC50
[1] = system: endothelial tube formation in co-cultures of ECFCs and ADSCs treated with VEGF; experiment: cells; type: cell-based, human; conditions: for IC50: read-out: VEGF_ADSC\ECFC Angio CD31 TubeArea summarized IC50
[2] = system: ECFC/ADSC co-culture cell nuclei number; conditions: for IC50: read-out: VEGF_ADSC\ECFC Angio Hoechst NucArea summarized IC50

## CS(=O)(=O)O.Cc1ccc2c(c1)c1c3n2CCNC3CCC1 (stereo not shown) [NCGC00024749-04]
DLD-1; assay number 23
  Basal_Viability ATP DLD-1 IC50/EC50: > 20000 nM
HeLa cells
  Hela CellCycMod PI 2N IC50/EC50: > 10000 nM
  Hela CellCycMod PI S Phase IC50/EC50: > 10000 nM
  Hela CellCycMod PI 4N IC50/EC50: > 10000 nM
  Hela CellCycMod PI MI IC50/EC50: > 10000 nM
  Hela CellCycMod PI Cell Number IC50/EC50: > 10000 nM
HT-29; assay number 28
  Basal_Viability ATP HT-29 IC50/EC50: > 20000 nM
Colo320; assay number 27
  Basal_Viability ATP Colo 320 IC50/EC50: > 20000 nM
RKO; assay number 29
  Basal_Viability ATP RKO IC50/EC50: > 20000 nM
HCT116; assay number 25, basal
  Basal_Viability ATP HCT116 IC50/EC50: > 20000 nM
SW480; assay number 24
  Basal_Viability ATP SW480 IC50/EC50: > 20000 nM
SNU-C1; assay number 30
  Basal_Viability ATP SNU-C1 IC50/EC50: 2476.3 nM

## Cc1cc(C(C#N)c2ccc(Cl)cc2)c(Cl)cc1NC(=O)c1cc(I)cc(I)c1O (stereo not shown) [NCGC00166312-02]
DLD-1
  Basal_Viability ATP DLD-1 IC50/EC50: 69 nM
HT-29
  Basal_Viability ATP HT-29 IC50/EC50: 125.5 nM
Colo320
  Basal_Viability ATP Colo 320 IC50/EC50: 116 nM
[1]
  VEGF_ADSC\ECFC Angio CD31 TubeArea IC50/EC50: > 10000 nM
RKO
  Basal_Viability ATP RKO IC50/EC50: 197.1 nM
[2]
  VEGF_ADSC\ECFC Angio Hoechst NucArea IC50/EC50: 7360 nM
HCT116
  Basal_Viability ATP HCT116 IC50/EC50: 97.75 nM
SW480
  Basal_Viability ATP SW480 IC50/EC50: 46 nM
SNU-C1
  Basal_Viability ATP SNU-C1 IC50/EC50: 43.8 nM

## CC(=O)[O][Hg][c]1ccccc1 [NCGC00091050-09]
DLD-1; assay number 23, basal
  IC50: 736 nM
HT-29; assay number 28, basal
  IC50: 799 nM
Colo320; assay number 27, basal
  IC50: 1300 nM
[1]
  IC50: 530 nM
RKO; assay number 29, basal
  IC50: 1200 nM
[2]
  IC50: 883 nM
HCT116; assay number 25, basal
  IC50: 2800 nM
SW480; assay number 24, basal
  IC50: 543 nM
SNU-C1; assay number 30, basal
  IC50: 192 nM

## C/C(=C(/OCCOc1ccc(Cl)cc1)c1ccc(Cl)cc1Cl)n1ccnc1 [NCGC00249921-01]
DLD-1
  Basal_Viability ATP DLD-1 IC50/EC50: 4180.4 nM
HT-29
  Basal_Viability ATP HT-29 IC50/EC50: > 6667 nM
Colo320
  Basal_Viability ATP Colo 320 IC50/EC50: 5855.1 nM
[1]
  VEGF_ADSC\ECFC Angio CD31 TubeArea IC50/EC50: 5839.8 nM
RKO
  Basal_Viability ATP RKO IC50/EC50: > 6666.7 nM
[2]
  VEGF_ADSC\ECFC Angio Hoechst NucArea IC50/EC50: 9416 nM
HCT116
  Basal_Viability ATP HCT116 IC50/EC50: > 6666.7 nM
SW480
  Basal_Viability ATP SW480 IC50/EC50: 8461.1 nM
SNU-C1
  Basal_Viability ATP SNU-C1 IC50/EC50: 2345.7 nM

## Oc1ccc(Cl)cc1Cc1cc(Cl)ccc1O [NCGC00091325-09]
DLD-1
  IC50: 862 nM
HT-29
  IC50: 4690 nM
Colo320
  IC50: 1210 nM
[1]
  IC50: 2320 nM
RKO
  IC50: 1930 nM
[2]
  IC50: 6000 nM
HCT116
  IC50: 1550 nM
SW480
  IC50: 2500 nM
SNU-C1
  IC50: 546 nM

## Nc1ncn([C@@H]2O[C@H](CO)[C@@H](O)[C@H]2O)c(=O)n1 [NCGC00090851-10]
DLD-1; assay number 23
  Basal_Viability ATP DLD-1 IC50/EC50: 2550.2 nM
HT-29; assay number 28
  Basal_Viability ATP HT-29 IC50/EC50: 12532.9 nM
Colo320; assay number 27
  Basal_Viability ATP Colo 320 IC50/EC50: 12340.6 nM
[1]
  VEGF_ADSC\ECFC Angio CD31 TubeArea IC50/EC50: > 10000 nM
RKO; assay number 29
  Basal_Viability ATP RKO IC50/EC50: 7400.4 nM
[2]
  VEGF_ADSC\ECFC Angio Hoechst NucArea IC50/EC50: > 10000 nM
HCT116; assay number 25, basal
  Basal_Viability ATP HCT116 IC50/EC50: 3036.4 nM
SW480; assay number 24
  Basal_Viability ATP SW480 IC50/EC50: > 6666.7 nM
SNU-C1; assay number 30
  Basal_Viability ATP SNU-C1 IC50/EC50: 1802.7 nM

## CN(C)c1ccc(C(=C2C=CC(=[N+](C)C)C=C2)c2ccc(N(C)C)cc2)cc1 [NCGC00091112-09]
DLD-1; assay number 23, basal
  IC50: 471 nM
HT-29; assay number 28, basal
  IC50: 466 nM
Colo320; assay number 27, basal
  IC50: 2050 nM
[1]
  IC50: 186 nM
RKO; assay number 29, basal
  IC50: 994 nM
[2]
  IC50: 1830 nM
HCT116; assay number 25, basal
  IC50: 514 nM
SW480; assay number 24, basal
  IC50: 528 nM
SNU-C1; assay number 30, basal
  IC50: 394 nM

## NCCCC[C@H](N[C@@H](CCc1ccccc1)C(=O)O)C(=O)N1CCC[C@H]1C(=O)O [NCGC00179623-04]
DLD-1; assay number 23, basal
  Basal_Viability ATP DLD-1 IC50/EC50: 2235.6 nM
HeLa cells
  Hela CellCycMod PI 2N IC50/EC50: > 10000 nM
  Hela CellCycMod PI S Phase IC50/EC50: > 10000 nM
  Hela CellCycMod PI 4N IC50/EC50: > 10000 nM
  Hela CellCycMod PI MI IC50/EC50: > 10000 nM
  Hela CellCycMod PI Cell Number IC50/EC50: > 10000 nM
HT-29; assay number 28, basal
  Basal_Viability ATP HT-29 IC50/EC50: > 6667 nM
Colo320; assay number 27, basal
  Basal_Viability ATP Colo 320 IC50/EC50: > 20000 nM
RKO; assay number 29, basal
  Basal_Viability ATP RKO IC50/EC50: 8877.2 nM
HCT116; assay number 25, basal
  Basal_Viability ATP HCT116 IC50/EC50: 3392.5 nM
SW480; assay number 24, basal
  Basal_Viability ATP SW480 IC50/EC50: 4028 nM
SNU-C1; assay number 30, basal
  Basal_Viability ATP SNU-C1 IC50/EC50: 2534.7 nM

## CC(C)NCC(O)COc1ccc(CCOCC2CC2)cc1 (stereo not shown) [NCGC00015159-11]
DLD-1; assay number 23
  Basal_Viability ATP DLD-1 IC50/EC50: > 20000 nM
HT-29; assay number 28
  Basal_Viability ATP HT-29 IC50/EC50: > 20000 nM
Colo320; assay number 27
  Basal_Viability ATP Colo 320 IC50/EC50: 6165.7 nM
RKO; assay number 29
  Basal_Viability ATP RKO IC50/EC50: > 20000 nM
HCT116; assay number 25, basal
  Basal_Viability ATP HCT116 IC50/EC50: > 20000 nM
SW480; assay number 24
  Basal_Viability ATP SW480 IC50/EC50: > 20000 nM
SNU-C1; assay number 30
  Basal_Viability ATP SNU-C1 IC50/EC50: > 20000 nM
